Experimental findings from patent publication US7718808B2, “Thiazole derivatives” (Kyowa Hakko Kirin Co., Ltd., priority 2003, dated 2010) are described below.

For orientation: melting point means the temperature of the solid-liquid transition. `COC1CCN(CC(=O)Nc2nc(-c3ccco3)c(C(=O)C3CCOCC3)s2)CC1` [Compound 545, N-[4-(2-Furyl)-5-(tetrahydropyran-4-ylcarbonyl)thiazol-2-yl]-2-(4-methoxypiperidino)acetamide] gave a melting point of 109 to 111 °C.
To `CC1(O)CCN(CC(=O)Nc2nc(-c3ccco3)c(C(=O)C3CCOCC3)s2)CC1` [Compound 546, N-[4-(2-Furyl)-5-(tetrahydropyran-4-ylcarbonyl)thiazol-2-yl]-2-(4-hydroxy-4-methylpiperidino)acetamide] belongs 151 to 153 °C.
To `O=C(CN1CCC(N2CCCC2)CC1)Nc1nc(-c2ccco2)c(C(=O)C2CCOCC2)s1` [Compound 551, N-[4-(2-Furyl)-5-(tetrahydropyran-4-ylcarbonyl)thiazol-2-yl]-2-[4-(1-pyrrolidinyl)piperidino]acetamide] belongs 183 to 184 °C; to `O=C(CN1CCC(N2CCCCC2)CC1)Nc1nc(-c2ccco2)c(C(=O)C2CCOCC2)s1` [Compound 552, N-[4-(2-Furyl)-5-(tetrahydropyran-4-ylcarbonyl)thiazol-2-yl]-2-(4-piperidinopiperidino)acetamide], 177 to 179 °C; to `O=C(CN1CCC(N2CCOCC2)CC1)Nc1nc(-c2ccco2)c(C(=O)C2CCOCC2)s1` [Compound 553, N-[4-(2-Furyl)-5-(tetrahydropyran-4-ylcarbonyl)thiazol-2-yl]-2-(4-morpholinopiperidino)acetamide], 193 to 195 °C.
As for `O=C(CN1CCC2(CC1)OCCO2)Nc1nc(-c2ccco2)c(C(=O)C2CCOCC2)s1` [Compound 554, 2-(1,4-Dioxa-8-azaspiro[4.5]decan-8-yl)-N-[4-(2-furyl)-5-(tetrahydropyran-4-ylcarbonyl)thiazol-2-yl]acetamide], the melting point is 186 to 187 °C.
As for `CN1CCN(CC(=O)Nc2nc(-c3ccco3)c(C(=O)C3CCOCC3)s2)CC1` [Compound 562, N-[4-(2-Furyl)-5-(tetrahydropyran-4-ylcarbonyl)thiazol-2-yl]-2-(4-methylpiperazin-1-yl)acetamide], the figure is 106 to 112 °C; as for `CC(C)(O)CN1CCN(CC(=O)Nc2nc(-c3ccco3)c(C(=O)C3CCOCC3)s2)CC1` [Compound 565, N-[4-(2-Furyl)-5-(tetrahydropyran-4-ylcarbonyl)thiazol-2-yl]-2-[4-(2-hydroxy-2-methylpropyl)piperazin-1-yl]acetamide], 106 to 108 °C; as for `COC1(CN2CCN(CC(=O)Nc3nc(-c4ccco4)c(C(=O)C4CCOCC4)s3)CC2)CC1` [Compound 567, N-[4-(2-Furyl)-5-(tetrahydropyran-4-ylcarbonyl)thiazol-2-yl]-2-{4-[(1-methoxycyclopropyl)methyl]piperazin-1-yl}acetamide], 155 to 157 °C.
As for `CN1CCCN(CC(=O)Nc2nc(-c3ccco3)c(C(=O)C3CCOCC3)s2)CC1` [Compound 576, N-[4-(2-Furyl)-5-(tetrahydropyran-4-ylcarbonyl)thiazol-2-yl]-2-(4-methyl-1,4-diazepan-1-yl)acetamide], the figure is 94 to 96 °C; as for `O=C(CNC12CC3CC(CC(C3)C1)C2)Nc1nc(-c2ccco2)c(C(=O)C2CCOCC2)s1` [Compound 577, N-[4-(2-Furyl)-5-(tetrahydropyran-4-ylcarbonyl)thiazol-2-yl]-2-(adamantan-1-ylamino)acetamide], 168 to 170 °C.
As to `O=C(CNC12CC3CC(CC(O)(C3)C1)C2)Nc1nc(-c2ccco2)c(C(=O)C2CCOCC2)s1` [Compound 578, N-[4-(2-Furyl)-5-(tetrahydropyran-4-ylcarbonyl)thiazol-2-yl]-2-(3-hydroxyadamantan-1-ylamino)acetamide], the melting point lay within 176 to 178 °C.
To `CCOC(=O)Nc1nc(-c2ccco2)c(C(=O)C2CCOCC2)s1` [Compound 581, Ethyl N-[4-(2-furyl)-5-(tetrahydropyran-4-ylcarbonyl)thiazol-2-yl]carbamate] belongs 152 to 153 °C; to `O=C(Nc1nc(-c2ccco2)c(C(=O)C2CCSCC2)s1)c1ccncc1` [Compound 589, N-[4-(2-Furyl)-5-(tetrahydrothiopyran-4-ylcarbonyl)thiazol-2-yl]pyridine-4-carboxamide], 203 to 210 °C; to `Cc1ccc(-c2nc(NC(=O)c3ccncc3)sc2-c2ccncc2)o1` [Compound 601, N-[4-(5-Methylfuran-2-yl)-5-(4-pyridyl)thiazol-2-yl]pyridine-4-carboxamide], 274 to 276 °C.
As for `Cc1ccoc1-c1nc(NC(=O)c2ccncc2)sc1-c1ccncc1` [Compound 602, N-[4-(3-Methylfuran-2-yl)-5-(4-pyridyl)thiazol-2-yl]pyridine-4-carboxamide], the figure is 254 to 257 °C.
With `O=C(Nc1nc(-c2occc2-c2ccccc2)c(-c2ccncc2)s1)c1ccncc1` [Compound 603, N-[4-(3-Phenylfuran-2-yl)-5-(4-pyridyl)thiazol-2-yl]pyridine-4-carboxamide], the melting point lay in the range of 190 to 192 °C.
To `O=C(Nc1nc(-c2ccoc2)c(-c2ccncc2)s1)c1ccncc1` [Compound 605, N-[4-(3-Furyl)-5-(4-pyridyl)thiazol-2-yl]pyridine-4-carboxamide] belongs 251 to 254 °C.
As for `O=C(Nc1nc(-c2ccoc2)c(C(=O)c2ccccn2)s1)c1ccncc1` [Compound 608, N-[4-(3-Furyl)-5-(pyridin-2-ylcarbonyl)thiazol-2-yl]pyridine-4-carboxamide], the figure is 264 to 266 °C; as for `O=C(Nc1nc(-c2ccoc2)c(C(=O)C2CCOCC2)s1)C1CC1` [Compound 611, N-[4-(3-Furyl)-5-(tetrahydropyran-4-ylcarbonyl)thiazol-2-yl]cyclopropanecarboxamide], 231 to 232 °C; as for `O=C(Nc1nc(-c2ccoc2)c(C(=O)C2CCOCC2)s1)c1ccc(Cl)nc1` [Compound 612, 2-Chloro-N-[4-(3-furyl)-5-(tetrahydropyran-4-ylcarbonyl)thiazol-2-yl]pyridine-5-carboxamide], 237 to 239 °C.
The compound `Cc1cncc(C(=O)Nc2nc(-c3ccoc3)c(C(=O)C3CCOCC3)s2)c1` [Compound 613, N-[4-(3-Furyl)-5-(tetrahydropyran-4-ylcarbonyl)thiazol-2-yl]-5-methylpyridine-3-carboxamide] showed a melting point of 244 to 246 °C.
Compound `Cc1ccc(C(=O)Nc2nc(-c3ccoc3)c(C(=O)C3CCOCC3)s2)cn1` [Compound 614, N-[4-(3-Furyl)-5-(tetrahydropyran-4-ylcarbonyl)thiazol-2-yl]-2-methylpyridine-5-carboxamide] displayed a melting point of 217 to 219 °C.
`Cc1cc(C(=O)Nc2nc(-c3ccoc3)c(C(=O)C3CCOCC3)s2)ccn1` [Compound 615, N-[4-(3-Furyl)-5-(tetrahydropyran-4-ylcarbonyl)thiazol-2-yl]-2-methylpyridine-4-carboxamide] came in with a melting point of 202 to 204 °C.
As for `O=C(Nc1nc(-c2ccoc2)c(C(=O)C2CCOCC2)s1)c1ccnc(Cl)c1` [Compound 616, 2-Chloro-N-[4-(3-furyl)-5-(tetrahydropyran-4-ylcarbonyl)thiazol-2-yl]pyridine-4-carboxamide], the figure is 202 to 204 °C; as for `O=C(Cc1cccnc1)Nc1nc(-c2ccoc2)c(C(=O)C2CCOCC2)s1` [Compound 618, N-[4-(3-Furyl)-5-(tetrahydropyran-4-ylcarbonyl)thiazol-2-yl]-2-(3-pyridyl)acetamide], 195 to 197 °C.
To `COc1cccc(C(=O)Nc2nc(-c3ccoc3)c(C(=O)C3CCOCC3)s2)c1` [Compound 619, N-[4-(3-Furyl)-5-(tetrahydropyran-4-ylcarbonyl)thiazol-2-yl]-3-methoxybenzamide] belongs 194 to 196 °C.
As for `O=C(Nc1nc(-c2ccoc2)c(C(=O)C2CCOCC2)s1)c1ccc(F)cc1` [Compound 620, 4-Fluoro-N-[4-(3-furyl)-5-(tetrahydropyran-4-ylcarbonyl)thiazol-2-yl]benzamide], the figure is 231 to 232 °C; as for `O=C(Nc1nc(-c2ccccn2)c(C(=O)c2ccccn2)s1)c1ccncc1` [Compound 631, N-[4-(2-Pyridyl)-5-(pyridin-2-ylcarbonyl)thiazol-2-yl]pyridine-4-carboxamide], 232 to 234 °C.
Compound `O=C(Nc1nc(-c2ccccc2)c(C(=O)c2ccccn2)s1)c1ccncc1` [Compound 634, N-[4-Phenyl-5-(pyridin-2-ylcarbonyl)thiazol-2-yl]pyridine-4-carboxamide] gave a melting point of 231 to 235 °C.
